A short description of data set [1]: CuAAC (i,i+4) side-chain stapling of azidolysine with propargylglycine or O-propargylserine; CuSO4·5H2O (1 eq), Na ascorbate (5 eq); from purified linear peptides. As to conditions: the molecule shown is the open-chain precursor, tBuOH/H2O 1:2, 0.5 mM, 25.0 °C.
Data set [2] can be described thus: CuAAC (i,i+4) side-chain stapling of azidolysine with propargylglycine or O-propargylserine; CuSO4·5H2O (1 eq), Na ascorbate (5 eq); from crude linear peptides. The settings on record: the molecule shown is the open-chain precursor, tBuOH/H2O 1:2, 0.5 mM, 25.0 °C.
For data set [3], the system named is β2AR (β2AR-Δ4 construct, C265 bimane-labelled). The experiment in a line: Conformational bimane fluorescence shift assay on purified mBBr-labelled β2AR. In kind it is biochemical. As to conditions: increasing concentrations of ISO, saturating at 250 μM and 500 μM.
Procedure: To further investigate their pharmacological profiles, selected peptidomimetics were tested in a bimane fluorescence shift assay (see ESI ^†). […] Stimulation of purified, C265 fluorophore-labelled β2AR with increasing concentrations of ISO results in a concentration-dependent decrease in the fluorescence intensity (FI) and a red-shift of the maximum emission wavelength (λmax) of the bimane-fluorophore probe (Fig. 5A).
Bimane-fluorescence curves in presence of agonist or peptidomimetic alone or in combination were normalised to that of the receptor alone.
Conformational biman e fluorescence assay
Baculovirus es containing the β2AR-Δ4 construct (full-length β 2AR with four mutated
cystein es (C77V, C327S , C378 A and C406A10,11) were generated as pr eviousl y d escribed b y
Rosenbaum et al.12 The modi fied β 2AR wa s ex pre s sed in S f9 insect cel ls using r ecombi na nt
baculovi rus and pu rified b y M1-anti- FLAG im munoaffinit y chr omatograph y. The F LAG -
purified receptor was l abe lled with monobromobimane (mBBr) and purified b y alprenolol
affinit y chr omato graph y as described b y Yao et al. 13 with one minor change; the modified β2AR
was labelled with an excess of 10 µM mBBr (instead of equivalent amounts of β 2AR and
mBBr). […]
ligands and peptide s were subtracted from the samples. Data was analysed b y use of the […]
The target of data set [4] is T1, β2-adrenergic receptor (β2AR) (Homo sapiens, UniProt P07550).
T1 construct: expressed in transfected cells; host or cells: HEK293 cells stably overexpressing β2AR; membrane fractions used
The experiment in a line: Membrane-based cAMP accumulation assay (HTRF), ISO-induced cAMP formation. In kind it is biochemical.
Procedure: To allow the peptidomimetics to interact with the intracellular G protein binding pocket they were tested in a membrane-based cAMP accumulation assay (see ESI ^†). […] The cAMP levels in absence of peptidomimetics were normalised to the basal (0%) and maximal efficacy (100%) of ISO in presence of vehicle (DMSO).
overexpressing the β2AR8 were prepared and the peptidomimetics tested as previously
peptidomimetics diluted in HBSS buffer supplemented with 20 mM HEPES pH 7.5, 0.1 %
Elmer) at room temperature (RT) for 15 min. Then isoproterenol solutions for the
prepared in ligand buffer (HBSS buffer supplemented with 20 mM HEPES pH 7.5, 0.1 %
added to the wells and incubated for 30 min at room temperature. To detect cAMP formation
the HTRF cAMP d ynamic 2 assa y kit from CisBio (cat no. 2AM4PEC) was used according
to the manufactures protocol. The absolute cAMP levels were determined using a cAMP
standard curve and norm alised to the maximal cAMP response obtained by full isoproterenol
stimulation alone. Significant differen ces b etween IS O alon e and in presence of the p eptides
were calculat ed statisticall y b y use of on e- wa y ANOVA in the GraphPad Prism software.

T1 sequence (P07550 whole entry, species assumed): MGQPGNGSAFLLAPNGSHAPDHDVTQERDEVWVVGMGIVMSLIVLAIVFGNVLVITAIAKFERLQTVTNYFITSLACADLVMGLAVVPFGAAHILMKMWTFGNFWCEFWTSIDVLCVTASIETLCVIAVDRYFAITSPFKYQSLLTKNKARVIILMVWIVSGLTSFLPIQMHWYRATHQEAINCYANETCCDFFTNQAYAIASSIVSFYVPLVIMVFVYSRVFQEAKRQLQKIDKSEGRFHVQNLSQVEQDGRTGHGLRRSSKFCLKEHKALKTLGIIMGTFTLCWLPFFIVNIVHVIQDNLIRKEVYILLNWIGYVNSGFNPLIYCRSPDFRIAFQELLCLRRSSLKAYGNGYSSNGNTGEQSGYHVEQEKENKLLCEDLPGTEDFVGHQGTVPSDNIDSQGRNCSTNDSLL

As to `C#CC[C@H](NC(=O)[C@H](CCCNC(=N)N)NC(=O)[C@H](CCC(N)=O)NC(=O)[C@@H](NC(=O)[C@@H](CCCCN=[N+]=[N-])NC(=O)[C@H](CC(=O)O)NC(=O)[C@H](CCCNC(=N)N)NC(C)=O)[C@@H](C)CC)C(=O)N[C@@H](Cc1cnc[nH]1)C(=O)N[C@@H](CC(C)C)C(=O)N[C@@H](CCCNC(=N)N)C(=O)N[C@@H](CCC(N)=O)C(=O)N[C@@H](Cc1ccc(O)cc1)C(=O)N[C@@H](CCC(=O)O)C(=O)N[C@@H](CC(C)C)C(=O)N[C@@H](CC(C)C)C(=O)O` [Ac-R-D-(D-K(N3))-I-Q-R-Pra-H-L-R-Q-Y-E-L-L-OH], in data set [1] (21-membered ring, 0.25 h), the ring closure, isolated yield turned out to be 56%. For the molecule `C#CCOC[C@H](NC(=O)[C@H](CCCNC(=N)N)NC(=O)[C@H](CCC(N)=O)NC(=O)[C@@H](NC(=O)[C@@H](CCCCN=[N+]=[N-])NC(=O)[C@H](CC(=O)O)NC(=O)[C@H](CCCNC(=N)N)NC(C)=O)[C@@H](C)CC)C(=O)N[C@@H](Cc1cnc[nH]1)C(=O)N[C@@H](CC(C)C)C(=O)N[C@@H](CCCNC(=N)N)C(=O)N[C@@H](CCC(N)=O)C(=O)N[C@@H](Cc1ccc(O)cc1)C(=O)N[C@@H](CCC(=O)O)C(=O)N[C@@H](CC(C)C)C(=O)N[C@@H](CC(C)C)C(=O)O` [Ac-R-D-(D-K(N3))-I-Q-R-Ser(O-propargyl)-H-L-R-Q-Y-E-L-L-OH], the ring closure, isolated yield in data set [1] (23-membered ring) was 40%. Turning to `C#CC[C@H](NC(=O)[C@H](CCCC)NC(=O)[C@H](CCCNC(=N)N)NC(=O)[C@H](CCC(N)=O)NC(=O)[C@H](CCCCN=[N+]=[N-])NC(=O)[C@@H](NC(=O)[C@H](CC(=O)O)NC(=O)[C@H](CCCNC(=N)N)NC(C)=O)[C@@H](C)CC)C(=O)N[C@@H](CC(C)C)C(=O)N[C@@H](CCCNC(=N)N)C(=O)N[C@@H](CCC(N)=O)C(=O)N[C@@H](Cc1ccc(O)cc1)C(=O)N[C@@H](CCC(=O)O)C(=O)N[C@@H](CC(C)C)C(=O)N[C@@H](CC(C)C)C(=O)O` [Ac-R-D-I-K(N3)-Q-R-Nle-Pra-L-R-Q-Y-E-L-L-OH], in data set [2] (21-membered ring), the ring closure, overall yield is 10%. In data set [2] (23-membered ring, 1.0 h), `C#CCOC[C@H](NC(=O)[C@H](CCCC)NC(=O)[C@H](CCCNC(=N)N)NC(=O)[C@H](CCC(N)=O)NC(=O)[C@H](CCCCN=[N+]=[N-])NC(=O)[C@@H](NC(=O)[C@H](CC(=O)O)NC(=O)[C@H](CCCNC(=N)N)NC(C)=O)[C@@H](C)CC)C(=O)N[C@@H](CC(C)C)C(=O)N[C@@H](CCCNC(=N)N)C(=O)N[C@@H](CCC(N)=O)C(=O)N[C@@H](Cc1ccc(O)cc1)C(=O)N[C@@H](CCC(=O)O)C(=O)N[C@@H](CC(C)C)C(=O)N[C@@H](CC(C)C)C(=O)O` [Ac-R-D-I-K(N3)-Q-R-Nle-Ser(O-propargyl)-L-R-Q-Y-E-L-L-OH] registered a ring closure, overall yield of 15%. Take `C#CC[C@H](NC(=O)[C@H](CCCNC(=N)N)NC(=O)[C@H](CCC(N)=O)NC(=O)[C@@H](NC(=O)[C@H](CCCCN=[N+]=[N-])NC(=O)[C@H](CC(=O)O)NC(=O)[C@H](CCCNC(=N)N)NC(C)=O)[C@@H](C)CC)C(=O)N[C@@H](Cc1cnc[nH]1)C(=O)N[C@@H](CC(C)C)C(=O)N[C@@H](CCCNC(=N)N)C(=O)N[C@@H](CCC(N)=O)C(=O)N[C@@H](Cc1ccc(O)cc1)C(=O)N[C@@H](CCC(=O)O)C(=O)N[C@@H](CC(C)C)C(=O)N[C@@H](CC(C)C)C(=O)O` [Ac-R-D-K(N3)-I-Q-R-Pra-H-L-R-Q-Y-E-L-L-OH]: the ring closure, isolated yield in data set [1] (21-membered ring, 0.25 h) worked out at 36%.

For `C#CCOC[C@H](NC(=O)[C@H](CCCNC(=N)N)NC(=O)[C@H](CCC(N)=O)NC(=O)[C@@H](NC(=O)[C@H](CCCCN=[N+]=[N-])NC(=O)[C@H](CC(=O)O)NC(=O)[C@H](CCCNC(=N)N)NC(C)=O)[C@@H](C)CC)C(=O)N[C@@H](Cc1cnc[nH]1)C(=O)N[C@@H](CC(C)C)C(=O)N[C@@H](CCCNC(=N)N)C(=O)N[C@@H](CCC(N)=O)C(=O)N[C@@H](Cc1ccc(O)cc1)C(=O)N[C@@H](CCC(=O)O)C(=O)N[C@@H](CC(C)C)C(=O)N[C@@H](CC(C)C)C(=O)O` [Ac-R-D-K(N3)-I-Q-R-Ser(O-propargyl)-H-L-R-Q-Y-E-L-L-OH], the ring closure, isolated yield in data set [1] (23-membered ring, 1.0 h) worked out at 69%. As for `CC(C)NC[C@H](O)c1ccc(O)c(O)c1` [ISO, (−)-isoproterenol], the “Effect on bimane fluorescence (FI and λmax) / receptor conformation” value in data set [3] is “induces an active receptor conformation in a concentration-dependent manner”. In the case of `CC[C@H](C)[C@H](NC(=O)[C@H](CC(=O)O)NC(=O)[C@H](CCCNC(=N)N)NC(C)=O)C(=O)N[C@H](C(=O)N[C@@H](CCC(N)=O)C(=O)N[C@@H](CCCNC(=N)N)C(=O)N[C@H]1CCCCn2cc(nn2)C[C@@H](C(=O)N[C@@H](Cc2ccc(O)cc2)C(=O)N[C@@H](CCC(=O)O)C(=O)N[C@@H](CC(C)C)C(=O)N[C@@H](CC(C)C)C(=O)O)NC(=O)[C@H](CCCNC(=N)N)NC(=O)[C@H](CC(C)C)NC(=O)[C@H](Cc2c[nH]cn2)NC1=O)[C@@H](C)CC` [Peptide 10C], in data set [4] (ISO CRC in presence of 100 μM peptidomimetic, HEK293 membranes overexpressing β2AR, normalised to ISO with vehicle (100%), mean ± SEM, n = 3, * P < 0.05), the “Maximum efficacy of ISO” value is listed as 61.0 ± 4.1* %. Further, the “Basal level (basal cAMP level of the ISO concentration-response curve)” value in data set [4] (ISO CRC in presence of 100 μM peptidomimetic, HEK293 membranes overexpressing β2AR, normalised to basal (0%) and maximal efficacy (100%) of ISO with vehicle (DMSO), 15 min preincubation, 30 min RT, mean ± SEM, n = 3) is −11.0 ± 4.3%. Moreover, the “Hill slope of the ISO concentration-response curve” value in data set [4] (in presence of 100 μM peptidomimetic, mean ± SEM, n = 3) worked out at 0.63 ± 0.06. Further, in data set [4] (in presence of an ISO concentration corresponding to EC75, 10C up to 200 μM, read-out: IC50 for blocking ISO-induced cAMP formation (estimated)), the 50% inhibitory concentration (IC50) was 55 µM.

The record behind these values is paper PMC9077236, “Gs protein peptidomimetics as allosteric modulators of the β2-adrenergic receptor” (RSC Advances, 2018).
